According to ChEMBL document CHEMBL1155287, “Discovery of a small molecule inhibitor through interference with the gp120-CD4 interaction” (Bioorg Med Chem Lett, 2009):
pIC50: −log10 of the molar value. Blank lines part the entries; values can stand above or below the molecule they belong to.

Legend:
[1] = Inhibition of HIV1 JRFL gp120-mediated CHO cells fusion to HeLaP4 cells by HIV LTR-beta galactosidase reporter assay; type: cell-based; details: Human immunodeficiency virus 1, JRFL
in vitro [2] = details: human, liver microsomes
[3] = Lipophilicity, log D at pH 7.4; type: physicochemical; details: buffer
[4] = Cytotoxicity against human HeLaP4 cells; type: cell-based
[5] = tested on: Human immunodeficiency virus 1; assay: Antiviral activity against Human immunodeficiency virus 1 NL4-3 assessed as inhibition of viral entry in HeLaP4 cells after 5 days by beta galactosidase reporter assay; type: functional, organism-based; details: Human immunodeficiency virus 1, NL4-3, HeLaP4, 120 h
[6] = tested on: Human immunodeficiency virus 1; assay: Antiviral activity against Human immunodeficiency virus 1 BaL infected human PBMC cells by Phenosense assay; type: functional, organism-based
in vitro [7] = details: rat, liver microsomes
[8] = Volume of distribution in rat at 1 mg/kg, iv and 1 mg/kg, po; type: ADME, organism-based; details: in vivo
[9] = Half life in rat at 1 mg/kg, iv and 1 mg/kg, po; type: ADME, organism-based; details: in vivo
[10] = Bioavailability in rat at 1 mg/kg; type: ADME, organism-based; details: in vivo
[11] = tested on: Human immunodeficiency virus 1; assay: Antiviral activity against Human immunodeficiency virus 1 BR92004 infected human PBMC cells by Phenosense assay; type: functional, organism-based; details: Human immunodeficiency virus 1, BR92004, PBMC
[12] = tested on: Human immunodeficiency virus 1; assay: Antiviral activity against Human immunodeficiency virus 1 3B infected human PBMC cells by Phenosense assay; type: functional, organism-based
[13] = Plasma protein binding in rat at 1 mg/kg, iv and 1 mg/kg, po; type: ADME, organism-based; details: read-out: PPB (converted)
[14] = tested on: Human immunodeficiency virus 1; assay: Antiviral activity against Human immunodeficiency virus 1 BR92023 infected human PBMC cells by Phenosense assay; type: functional, organism-based; details: Human immunodeficiency virus 1, BR92023, PBMC
[15] = Clearance in rat at 1 mg/kg, iv and 1 mg/kg, po; type: ADME, organism-based; details: in vivo

SMILES: CNC(=O)c1ccc(OC(C)C(=O)N2CCN(C(=O)c3ccccc3)C[C@H]2C)c(F)c1 (mixture of isomers)
pIC50 [1]: 5.70 | microsomal CLint (in vitro [2]): < 8 µL/min/mg | logD [3]: 1.4 | CC50 [4]: > 10000 nM

SMILES: CNC(=O)c1ccc(O[C@H](C)C(=O)N2CCN(C(=O)c3ccccc3)C[C@H]2C)c(OC)c1
pIC50 [1]: < 5.70 | CC50 [4]: > 10000 nM

SMILES: CCOc1cc(C(=O)NC)ccc1OC(C)C(=O)N1CCN(C(=O)c2ccccc2)C[C@H]1C (mixture of isomers)
pIC50 [1]: < 5.70 | CC50 [4]: > 10000 nM

SMILES: CNC(=O)c1ccc(O[C@@H](C)C(=O)N2CCN(C(=O)c3ccccc3)C[C@H]2C)c(OC)n1 (mixture of isomers)
pIC50 [1]: 6.59 | CC50 [4]: > 10000 nM

SMILES: CNC(=O)c1cc(OC)c(O[C@@H](C)C(=O)N2CCN(C(=O)c3ccccc3)C[C@H]2C)cn1 (mixture of isomers)
pIC50 [5]: 8.70 | pIC50 [6]: 7.60 | half-life (in vitro [7]): > 2 h | Vd [8]: 1.5 L/kg | half-life [9]: 1 h | bioavailability [10]: 65% | pIC50 [1]: 7.96 | pIC50 [11]: 8.22 | pIC50 [12]: 8.00 | fraction unbound [13]: 0.69 | pIC50 [14]: 9.22 | microsomal CLint (in vitro [2]): < 8 µL/min/mg | logD [3]: 0.7 | CC50 [4]: > 10000 nM

SMILES: CNC(=O)c1cccc(OC(C)C(=O)N2CCN(C(=O)c3ccccc3)C[C@H]2C)c1C (mixture of isomers)
pIC50 [1]: 4.92 | microsomal CLint (in vitro [2]): < 8 µL/min/mg | logD [3]: 1.2 | CC50 [4]: > 10000 nM

SMILES: CNC(=O)c1ccc(O[C@@H](C)C(=O)N2CCN(C(=O)c3ccccc3)C[C@H]2C)c(OC)c1
clearance [15]: 75 mL/min/kg | pIC50 [5]: 8.52 | half-life (in vitro [7]): > 2 h | Vd [8]: 4.3 L/kg | half-life [9]: 0.7 h | bioavailability [10]: 48% | pIC50 [1]: 7.77 | fraction unbound [13]: 0.81 | microsomal CLint (in vitro [2]): < 8 µL/min/mg | logD [3]: 1 | CC50 [4]: > 10000 nM

SMILES: CNC(=O)c1cccc(OC(C)C(=O)N2CCN(C(=O)c3ccccc3)C[C@H]2C)c1OC (mixture of isomers)
pIC50 [1]: < 5.00 | microsomal CLint (in vitro [2]): < 8 µL/min/mg | logD [3]: 1 | CC50 [4]: > 10000 nM

SMILES: CNC(=O)c1ccc(OC(C)C(=O)N2CCN(C(=O)c3ccccc3)C[C@H]2C)cc1OC (mixture of isomers)
pIC50 [1]: 5.57 | CC50 [4]: > 10000 nM

SMILES: Cc1c(OC(C)C(=O)N2CCN(C(=O)c3ccccc3)C[C@H]2C)cccc1-c1ncno1 (mixture of isomers)
pIC50 [1]: 7.12 | microsomal CLint (in vitro [2]): 141 µL/min/mg | logD [3]: 2.1 | CC50 [4]: > 10000 nM

SMILES: CNC(=O)c1ccc(OC(C)C(=O)N2CCN(C(=O)c3ccccc3)C[C@H]2C)c(C)c1 (mixture of isomers)
pIC50 [1]: 5.54 | microsomal CLint (in vitro [2]): < 8 µL/min/mg | logD [3]: 1.8 | CC50 [4]: > 10000 nM

Now from value to molecule, other results behind:

pIC50 [1]: < 4.60 | microsomal CLint (in vitro [2]): < 8 µL/min/mg | logD [3]: 0.9
SMILES: CC(Oc1ccc(C(=O)N(C)C)cc1)C(=O)N1CCN(C(=O)c2ccccc2)C[C@H]1C (mixture of isomers)
CC50 [4]: > 10000 nM

pIC50 [1]: 7.00 | microsomal CLint (in vitro [2]): 158 µL/min/mg
SMILES: Cc1ccc(OC(C)C(=O)N2CCN(C(=O)c3ccccc3)C[C@H]2C)cc1C (mixture of isomers)
CC50 [4]: > 10000 nM

pIC50 [1]: 7.46 | microsomal CLint (in vitro [2]): 61 µL/min/mg | logD [3]: 2.3
SMILES: CC(Oc1cccc(-c2ccn[nH]2)c1)C(=O)N1CCN(C(=O)c2ccccc2)C[C@H]1C (mixture of isomers)
CC50 [4]: > 10000 nM

pIC50 [1]: < 4.60 | microsomal CLint (in vitro [2]): 23 µL/min/mg | logD [3]: 1.5
SMILES: CNC(=O)c1ccccc1OC(C)C(=O)N1CCN(C(=O)c2ccccc2)C[C@H]1C (mixture of isomers)
CC50 [4]: > 10000 nM

pIC50 [1]: 5.85 | microsomal CLint (in vitro [2]): < 8 µL/min/mg | logD [3]: 1.3
SMILES: CNC(=O)c1cccc(OC(C)C(=O)N2CCN(C(=O)c3ccccc3)C[C@H]2C)c1 (mixture of isomers)
CC50 [4]: > 10000 nM

pIC50 [1]: 5.59 | microsomal CLint (in vitro [2]): < 8 µL/min/mg | logD [3]: 1.1
SMILES: CNC(=O)c1ccc(OC(C)C(=O)N2CCN(C(=O)c3ccccc3)C[C@H]2C)cc1 (mixture of isomers)
CC50 [4]: > 10000 nM

pIC50 [1]: 6.00
SMILES: CC(Oc1cccc(Cl)c1)C(=O)N1CCN(C(=O)c2ccccc2)C[C@H]1C (stereo not given in full)
CC50 [4]: > 10000 nM

pIC50 [1]: < 4.60 | microsomal CLint (in vitro [2]): 31 µL/min/mg | logD [3]: 1.1
SMILES: CC(Oc1ccccc1C(=O)N(C)C)C(=O)N1CCN(C(=O)c2ccccc2)C[C@H]1C (mixture of isomers)
CC50 [4]: > 10000 nM

pIC50 [1]: 6.00 | microsomal CLint (in vitro [2]): < 8 µL/min/mg | logD [3]: 1.1
SMILES: CNC(=O)c1ccc(OC(C)C(=O)N2CCN(C(=O)c3ccccc3)C[C@H]2C)cc1C (mixture of isomers)
CC50 [4]: > 10000 nM

pIC50 [1]: < 4.60 | microsomal CLint (in vitro [2]): 12 µL/min/mg | logD [3]: 1
SMILES: CC(Oc1cccc(C(=O)N(C)C)c1)C(=O)N1CCN(C(=O)c2ccccc2)C[C@H]1C (mixture of isomers)
CC50 [4]: > 10000 nM
